{"source": "patent US12178822B2", "about": "“Methods of treating hematological malignancies using 2-(2,6-dioxopiperidin-3-yl)-4-((2-fluoro-4-((3-morpholinoazetidin-1-yl)methyl)benzyl)amino)isoindoline-1,3-dion” (Celgene Corporation, priority 2019, dated 2024)", "assay_type_in_all_cases": "cell-based", "key": {"SK-MM-1": {"system": "SK-MM-1", "experiment": "Cell proliferation and viability / apoptosis flow cytometry assay, SK-MM-1", "conditions": "SK-MM-1 (MM, PCL); 120 hours", "experimental": "(§1) The following are examples of cell-based assays that can be used to determine the anti-proliferative activity and apoptotic effect of compounds described herein using exemplary hematological cell lines (Table 1). The in vitro growth inhibitory activity of Compound 1 described herein was evaluated using a 384-well flow cytometry assay.\n(§2) The cell lines were plated under the conditions shown in Table 1 in 384-well flat bottom plates and incubated with increasing concentrations of compound ranging from 0.00015 to 10 μM or dimethyl sulfoxide (DMSO) control. The final concentration of DMSO was 0.1% (v/v). Following the addition of Compound 1 or DMSO and incubation for 120 hours, cell number and cell death were analyzed by flow cytometry (Attune®, Thermo Fisher) using Annexin V and the live-cell impermeant DNA dye, DRAQ7. […]\n(§3) Flow cytometry data analysis was then performed using the Flow Jo_v10 software to determine the number of viable cells (Annexin V and DRAQ7 double negative staining cells) and percentage of apoptotic cells (Annexin V positive cells) for each condition. […] The IC50 (50% inhibitory concentration) and Emax (maximum efficacy achieved) values were then calculated by performing nonlinear regression curve fitting using log(inhibitor) vs. normalized response—variable slope analysis on GraphPad Prism 7.03. […]"}, "L-363": {"system": "L-363", "experiment": "Cell proliferation and viability / apoptosis flow cytometry assay, L-363", "conditions": "L-363 (MM, PCL); 120 hours", "experimental": "as §1, §2, §3"}, "NCI-H929": {"system": "NCI-H929", "experiment": "Cell proliferation and viability / apoptosis flow cytometry assay, NCI-H929", "conditions": "NCI-H929 (MM); 120 hours", "experimental": "as §1, §2, §3"}, "L-591": {"system": "L-591", "experiment": "Cell proliferation and viability / apoptosis flow cytometry assay, L-591", "conditions": "L-591 (HL); 120 hours", "experimental": "as §1, §2, §3"}, "HNT-34": {"system": "HNT-34", "experiment": "Cell proliferation and viability / apoptosis flow cytometry assay, HNT-34", "conditions": "HNT-34 (AML); 120 hours", "experimental": "as §1, §2, §3"}, "MDS-L": {"system": "MDS-L", "experiment": "Cell proliferation and viability / apoptosis flow cytometry assay, MDS-L", "conditions": "120 hours", "experimental": "as §1, §2, §3"}, "SVSL/VL51": {"system": "SVSL/VL51", "experiment": "Cell proliferation and viability / apoptosis flow cytometry assay, SVSL", "conditions": "SVSL (MZL, SMZL); 120 hours", "experimental": "as §1, §2, §3"}, "OPM-2": {"system": "OPM-2", "experiment": "Cell proliferation and viability / apoptosis flow cytometry assay, OPM-2", "conditions": "OPM-2 (MM); 120 hours", "experimental": "as §1, §2, §3"}, "L-428": {"system": "L-428", "experiment": "Cell proliferation and viability / apoptosis flow cytometry assay, L-428", "conditions": "L-428 (HL); 120 hours", "experimental": "as §1, §2, §3"}, "HuT-102": {"system": "HuT-102", "experiment": "Cell proliferation and viability / apoptosis flow cytometry assay, HuT-102", "conditions": "HuT-102 (TCL); 120 hours", "experimental": "as §1, §2, §3"}, "JJN-3": {"system": "JJN-3", "experiment": "Cell proliferation and viability / apoptosis flow cytometry assay, JJN-3", "conditions": "JJN-3 (MM, PCL); 120 hours", "experimental": "as §1, §2, §3"}, "BL-41": {"system": "BL-41", "experiment": "Cell proliferation and viability / apoptosis flow cytometry assay, BL-41", "conditions": "120 hours", "experimental": "as §1, §2, §3"}, "Karpas-231": {"system": "Karpas-231", "experiment": "Cell proliferation and viability / apoptosis flow cytometry assay, Karpas-231", "conditions": "Karpas-231 (ALL); 120 hours", "experimental": "as §1, §2, §3"}, "KOPN-8": {"system": "KOPN-8", "experiment": "Cell proliferation and viability / apoptosis flow cytometry assay, KOPN-8", "conditions": "KOPN-8 (ALL); 120 hours", "experimental": "as §1, §2, §3"}, "Daudi": {"system": "Daudi", "experiment": "Cell proliferation and viability / apoptosis flow cytometry assay, Daudi", "conditions": "Daudi (BL); 120 hours", "experimental": "as §1, §2, §3"}, "Karpas-299": {"system": "Karpas-299", "experiment": "Cell proliferation and viability / apoptosis flow cytometry assay, Karpas-299", "conditions": "Karpas-299 (TCL); 120 hours", "experimental": "as §1, §2, §3"}}}
{"smiles": "O=C1CC[C@H](N2C(=O)c3cccc(NCc4ccc(CN5CC(N6CCOCC6)C5)cc4F)c3C2=O)C(=O)N1", "note": "[Compound 1, (S)-2-(2,6-dioxopiperidin-3-yl)-4-((2-fluoro-4-((3-morpholinoazetidin-1-yl)methyl)benzyl)amino)isoindoline-1,3-dione]", "values": [{"measurement": "% Viable Cells Emax (percentage of tumor cells remaining)", "setting": "SK-MM-1", "result": 3, "unit": "%"}, {"measurement": "% Viable Cells Emax (percentage of tumor cells remaining)", "setting": "L-363", "result": 27.6, "unit": "%"}, {"measurement": "% Viable Cells Emax (percentage of tumor cells remaining)", "setting": "NCI-H929", "result": 6.1, "unit": "%"}, {"measurement": "% Viable Cells Emax (percentage of tumor cells remaining)", "setting": "L-591", "result": 34.6, "unit": "%"}, {"measurement": "% Viable Cells Emax (percentage of tumor cells remaining)", "setting": "HNT-34", "result": 20.47, "unit": "%"}, {"measurement": "% Viable Cells Emax (percentage of tumor cells remaining)", "setting": "MDS-L", "result": 146.7, "unit": "%"}, {"measurement": "% Viable Cells Emax (percentage of tumor cells remaining)", "setting": "SVSL/VL51", "result": 34.07, "unit": "%"}, {"measurement": "% Viable Cells Emax (percentage of tumor cells remaining)", "setting": "OPM-2", "result": 6.65, "unit": "%"}, {"measurement": "% Viable Cells Emax (percentage of tumor cells remaining)", "setting": "L-428", "result": 47.3, "unit": "%"}, {"measurement": "% Viable Cells Emax (percentage of tumor cells remaining)", "setting": "HuT-102", "result": 36.34, "unit": "%"}, {"measurement": "% Viable Cells Emax (percentage of tumor cells remaining)", "setting": "JJN-3", "result": 21.6, "unit": "%"}, {"measurement": "% Viable Cells Emax (percentage of tumor cells remaining)", "setting": "BL-41", "result": 96.65, "unit": "%"}, {"measurement": "% Viable Cells Emax (percentage of tumor cells remaining)", "setting": "Karpas-231", "result": 0, "unit": "%"}, {"measurement": "% Viable Cells Emax (percentage of tumor cells remaining)", "setting": "KOPN-8", "result": 38.3, "unit": "%"}, {"measurement": "% Viable Cells Emax (percentage of tumor cells remaining)", "setting": "Daudi", "result": 0, "unit": "%"}, {"measurement": "% Viable Cells Emax (percentage of tumor cells remaining)", "setting": "Karpas-299", "result": 8.43, "unit": "%"}]}
